“And” between values parts separate entries of the source, which are not always exact repeats. Equal entries are not always repeated.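 Grown in 96-well plates, cells were treated for 48 hours with each compound at five concentrations. Insufficient inhibition: endpoint recorded as highest concentration tested. Abbreviation: GI50, concentration required for 50% inhibition of growth. TGI is the concentration that stops growth completely.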
Legend:
Test in all cases: NCI-60 cell line screen, 48 h
[1] = test system: 786-0 renal
[2] = test system: A549 NSCLC
[3] = test system: COLO 205 colon
[4] = test system: HL-60(TB) leukemia
[5] = test system: K-562 leukemia
[6] = test system: LOX IMVI melanoma
[7] = test system: MDA-MB-231 breast
[8] = test system: MDA-MB-435
[9] = test system: NCI-H522 lung
[10] = test system: NCI/ADR-RES ovarian
[11] = test system: OVCAR-3 ovarian
[12] = test system: OVCAR-5 ovarian
[13] = test system: RPMI-8226 leukemia
[14] = test system: RXF 393 renal
[15] = test system: SF-539 CNS
[16] = test system: SNB-19 CNS
[17] = test system: UACC-62 melanoma
[18] = test system: SR leukemia

| SMILES | TGI [1] [µM] | TGI [2] [µM] | TGI [3] [µM] | TGI [4] [µM] | TGI [5] [µM] | TGI [6] [µM] | TGI [7] [µM] | TGI [8] [µM] | TGI [9] [µM] | TGI [10] [µM] | TGI [11] [µM] | TGI [12] [µM] | TGI [13] [µM] | TGI [14] [µM] | TGI [15] [µM] | TGI [16] [µM] | TGI [17] [µM] | TGI [18] [µM] | GI50 [17] [µM] | GI50 [7] |
| --- | --- | --- | --- | --- | --- | --- | --- | --- | --- | --- | --- | --- | --- | --- | --- | --- | --- | --- | --- | --- |
| O=[N+]([O-])c1cccc2nc3ccccc3c(NCCCN3CCCCC3)c12 | 0.0492 | 0.115 | 0.0201 | 0.511 | 1.12 | 0.0562 | 0.0509 | 0.0227 | 0.0236 | 4.9 | 0.026 | 0.0669 | 0.0611 | 0.0246 | 0.0451 | 0.444 | 0.0298 | – | – | – |
| C=C1CC(COc2ccc3c(C)cc(=O)oc3c2)(c2ccccc2)OC1=O (centres undefined) | 2.79 | 25 | 2.76 | – | – | 3.1 | 9.07 | 8.03 | 3.37 | 16.6 | 5.59 | 24.5 | 1.62 | – | 5.05 | 29 | 3.05 | > 31.6 | – | – |
| O=C(N/N=C(/COc1cccc(Cl)c1)N=Cc1cccnc1)c1ccncc1 | > 100 | > 100 | > 100 | > 100 | > 100 | > 100 | > 100 | > 100 | > 100 | > 100 | > 100 | > 100 | > 100 | > 100 | > 100 | > 100 | > 100 | – | – | – |
| CC(=O)Nc1ccc2cc3[nH]c4cc(NC(C)=O)ccc4c3nc2c1 | > 100 | > 100 | > 100 | – | > 100 | > 100 | > 100 | > 100 | > 100 | > 100 | > 100 | > 100 | > 100 | > 100 | > 100 | > 100 | > 100 | > 100 | – | – |
| COc1cc(C23OCC(Cc4cc5c(cc42)OCO5)C3CO)cc(OC)c1OC (centres undefined) | > 100 | > 100 | > 100 | > 50.1 | > 100 | 13.2 | > 84.4 | – | 5.11 | 5.51 | 5.8 | > 100 | > 100 | 8.03 | 26.2 | > 100 | > 100 | > 100 | 4.27 | – |
| C[C@]12CC/C(=N\OCCN3CCCCC3)C=C1CCC1C2CC[C@@]2(C)C1CC[C@]2(C)O (some centres undefined) | 17.3 | 35 | 20.9 | – | 17.9 | 15.7 | 28.2 | 6.71 | 7.52 | 20.5 | 42.8 | 94.4 | 31.5 | 56.5 | 22.5 | 30 | 24.8 | – | – | – |
| COc1ccc2c(c1)C(N)=C(Cc1ccncc1)C2=O | > 100 | > 100 | > 100 | > 100 | > 100 | > 100 | > 100 | > 100 | > 100 | > 100 | > 100 | – | > 100 | > 100 | > 100 | > 100 | > 100 | – | – | – |
| O=C(/C=C/c1ccc(O)c(O)c1)NCCc1ccc(-c2ccccc2)cc1 | > 100 | > 100 | > 100 | > 100 | 80.4 | – | – | – | > 100 | > 100 | 65.7 | > 100 | > 100 | > 100 | > 100 | > 100 | – | – | – | – |
| Cc1ccc(C)n1-n1c(-c2ccccc2)n[nH]c1=O | > 100 | > 100 | > 100 | – | > 100 | > 100 | > 100 | 53.6 | > 100 | > 100 | > 100 | > 100 | > 100 | > 100 | – | > 100 | > 100 | > 100 | – | – |
| CCOC(=O)NC(=S)c1ccc(O)c2ccccc12 | > 100 | > 100 | > 100 | 39.9 | > 100 | > 100 | – | > 100 | > 100 | > 100 | > 100 | > 100 | > 100 | – | > 100 | > 100 | > 100 | > 100 | – | – |
| O=C(O)CCC(NC(=O)c1ccc(CNc2nc3ccccc3nc2C(=O)O)cc1)C(=O)O (centres undefined) | > 100 | > 100 | > 100 | – | > 100 | > 100 | > 100 | > 100 | – | > 100 | > 100 | > 100 | > 100 | – | – | > 100 | > 100 | > 100 | – | – |
| COc1ccc2nc3n(c2c1)C(c1c(Cl)cccc1Cl)SC3 (centres undefined) | > 100 | > 100 | > 100 | > 100 | > 100 | > 100 | – | > 100 | – | > 100 | > 100 | > 100 | > 100 | > 100 | – | > 100 | > 100 | > 100 | – | – |
| N#CCCN(CCC#N)c1ccc(C(N=Nc2ccc(Cl)cc2)=Nc2ccc(F)cc2)cc1 | > 100 | > 100 | > 100 | – | > 100 | – | > 100 | > 100 | > 100 | > 100 | > 100 | > 100 | > 100 | > 100 | > 100 | > 100 | > 100 | > 100 | – | – |
| Nc1ccccc1N=Nc1c(S(=O)(=O)O)cc2cc(S(=O)(=O)O)cc(O)c2c1O | > 100 | > 100 | > 100 | – | > 100 | > 100 | > 100 | > 100 | > 100 | > 100 | > 100 | > 100 | > 100 | > 100 | – | > 100 | > 100 | > 100 | – | – |
| COC(=O)c1c(C(=O)OC)c2c3ccccc3n(C)c2c2c1c1ccccc1n2C | > 100 | > 100 | > 100 | – | > 100 | > 100 | > 100 | > 100 | > 100 | > 100 | – | > 100 | > 100 | – | > 100 | 83.3 | > 100 | > 100 | – | – |
| O=C(c1ccccc1)c1c(CC(O)c2ccccc2)n(C(=O)c2ccccc2)c2ccccc12 (centres undefined) | > 100 | > 100 | > 100 | > 100 | > 100 | – | – | – | 64.7 | – | > 100 | > 100 | > 100 | – | > 100 | > 100 | > 100 | 72.8 | – | – |
| O=[N+]([O-])c1sc2ccc(Cl)cc2c1Nc1ccc(Cl)cc1 | > 100 | > 100 | > 100 | > 100 | > 100 | > 100 | > 100 | > 100 | > 100 | > 100 | > 100 | > 100 | > 100 | > 100 | > 100 | > 100 | > 100 | – | – | – |
| COc1ccc(CNC(=O)[C@H](Cc2ccc(O)cn2)NC(C)=O)cc1 | > 100 | > 100 | > 100 | > 100 | > 100 | > 100 | – | > 100 | > 100 | > 100 | > 100 | > 100 | > 100 | > 100 | > 100 | > 100 | > 100 | > 100 | – | – |
| CC(=O)Oc1c2oc3cc(O)c(O)cc3c2c(OC(C)=O)c2oc3cc(O)c(O)cc3c12 | > 100 | > 100 | 33.5 | 13 | > 100 | > 100 | – | 3.81 | 35.8 | 86.7 | – | 56.3 | – | 32.6 | 53.3 | 94.2 | 40.2 | > 100 | – | – |
| COC(=O)c1cc(C)n(CN(Cc2ccccc2)Cn2nc(C(=O)OC)cc2C)n1 | > 100 | > 100 | > 78.1 | – | > 100 | > 100 | > 100 | > 100 | > 100 | > 100 | > 100 | > 100 | > 62.9 | 98 | > 68.7 | > 100 | > 100 | – | – | – |
| CCCCCCCCCc1c(O)c(O)c(CCCCCCCCC)c(CCCCCCCCC)c1CCCCCCCCC | > 100 | > 100 | > 100 | 50 | > 100 | > 100 | > 100 | > 100 | > 100 | > 100 | > 100 | > 100 | > 100 | > 100 | > 100 | > 100 | > 100 | – | – | – |
| CCN(CC)COC(=S)S | > 100 | > 100 | > 100 | – | > 100 | > 100 | > 100 | > 100 | > 94.7 | > 100 | – | > 100 | – | > 56.1 | > 100 | > 100 | > 100 | 25.9 | – | – |
| O=C(O)CC1CC=C[C@H]2c3cc4c(cc3C(=O)NC12)OCO4 (some centres undefined) | > 75 | > 75 | > 75 | > 75 | > 75 | > 75 | – | – | > 75 | – | > 75 | – | > 75 | > 75 | > 75 | > 75 | > 75 | > 75 | – | – |
| O=C1CN(c2ccc(Cl)cc2)C(=O)CN1NCNN1CC(=O)N(c2ccc(Cl)cc2)CC1=O | > 100 | > 100 | > 100 | > 100 | – | – | – | > 100 | > 100 | – | > 100 | > 100 | > 100 | > 100 | > 100 | > 100 | > 100 | > 100 | – | – |
| COc1ccc(C[C@H](N)C(=O)N2C[C@@H](CO)C[C@@H](n3cnc4c(N(C)C)ncnc43)C2)cc1 | > 100 | > 100 | – | > 100 | > 100 | > 100 | – | – | > 100 | – | > 100 | > 100 | > 100 | – | > 100 | > 100 | > 100 | > 100 | – | – |
| NC(=S)NS(=O)(=O)c1ccc(F)cc1F | > 100 | > 100 | > 100 | > 100 | > 100 | > 100 | > 100 | > 100 | > 100 | > 100 | > 100 | > 100 | > 100 | > 100 | > 100 | > 100 | > 100 | – | – | – |
| O=C(O)C12C3CCC(O3)C1(C(=O)O)C1CCC2O1 (centres undefined) | > 100 | > 100 | > 100 | > 100 | > 100 | > 100 | > 100 | > 100 | > 100 | > 100 | > 100 | > 100 | > 100 | > 100 | > 100 | > 100 | > 100 | – | – | 42.2 µM and 85.8 µM |
| CCOC(=O)c1[nH]c2nc(SC)nc(Nc3ccccc3Cl)c2c1N | 46 | 44.8 | > 100 | – | 40.5 | 44.8 | 59.3 | > 100 | 53.4 | 73.3 | 75.4 | > 100 | 43.5 | 30.2 | – | 44.5 | 84.7 | – | – | – |
| O=C(Nn1cnn2c(=O)c3ccccc3nc2c1=O)c1ccccc1 | > 100 | > 100 | > 100 | > 100 | > 100 | > 100 | > 100 | > 100 | > 100 | – | > 100 | > 100 | > 100 | – | > 100 | > 100 | > 100 | > 100 | – | – |

Source: PubChem BioAssay (NCI)
